From patent US8466107B2, “Fibrin-binding peptides and conjugates thereof” (Bracco Imaging SpA, priority 2006, dated 2013)
Bridge positions count the residues as written; N and C are the ends. Peptide text beside a SMILES is read from it. * marks the point of attachment. ξ: configuration not given here. αGalNAc = CC(=O)N[C@@H]1[C@@H](O)[C@@H](O)[C@@H](CO)O[C@@H]1*; 5FAM = O=C1OC2(c3ccc(O)cc3Oc3cc(O)ccc32)c2ccc(C(=O)*)cc21; ξTetrahydrofuran2carbonyl = O=C(C1CCCO1)*

Target: DDE (fibrin-derived polypeptide) (Homo sapiens, UniProt P02671+P02675+P02679)
Assay: Direct binding fluorescence polarization (FP) assay using 5-carboxyfluorescein labeled peptides
Details: 20 nM CF5-labeled peptide, serial dilutions of DDE, anisotropy read at 485 nm; read-out: KD (μM) Direct Binding (n = 2)
Procedure: Assay of Fibrin Binding Peptides by Direct Binding Fluorescence Polarization (FP) Procedure using 5-Carboxyfluoresein Labeled Peptides
Protocol • 1. Prepare 1 mL of 40 nM solution of 5-carboxyfluorescein-labeled peptide in HEPES dilution buffer (HDB) with 0.01% Tween. • HDB (10 mM HEPES, 150 mM […], 2 mM CaCl2) • 2. Dilute the 40 nM solution to obtain 1 ml of a 20 nM solution of the test 5-carboxyfluorescein-labeled peptide. • 3. Prepare a solution of DDE at a concentration that will be approximately 5-10 fold greater than the expected KD. For the described assay an 8 μM concentration of DDE was prepared. • 4. Mix equal volumes of the DDE solution with the 40 nM peptide solution. • 5. Prepare serial dilutions of DDE in a solution consisting of the binding buffer with 0.01% Tween20 and 20 nM of the 5-carboxyfluorescein-labeled peptide. • 6. Make dilutions as shown in the following table in a Labsystems 384-well microplate and mix by repeated aspiration and dispensing of the solution into the wells. • 7. Centrifuge the plate at 2000 RPM for 5 minutes to remove air pockets in the wells. • 8. Read in Tecan Polarion Plate Reader at 485 nm to obtain the anisotropy value.
The anisotropy (in mP—millipolarization units) vs the logarithm of the concentration (micromoles/liter) of the receptor concentration is graphed. The dissociation constant is obtained at the midpoint of the curve whose extrema are Afree and Abound where Afree is the anisotropy of the free peptide and Abound is the anisotropy of the fully bound peptide. The theory, methods of operation and mathematical analysis is described in, for example, the following reference: Fluorescence Polarization Technical Resource Guide Technical Resource Guide 4th Edn. Invitrogen Corporation•501 Charmany Drive•Madison, Wis. 53719 USA. Particularly, the mathematical analysis of the data and obtaining binding constants is described in Chapter 8: Analysis of FP Binding Data pp 8-2-8-7.

Chain of DDE (fibrin-derived polypeptide) (P02671 124-216): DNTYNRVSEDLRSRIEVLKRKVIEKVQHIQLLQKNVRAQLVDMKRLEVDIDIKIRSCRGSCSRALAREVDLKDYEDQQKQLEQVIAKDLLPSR
Chain of DDE (fibrin-derived polypeptide) (P02675 164-491): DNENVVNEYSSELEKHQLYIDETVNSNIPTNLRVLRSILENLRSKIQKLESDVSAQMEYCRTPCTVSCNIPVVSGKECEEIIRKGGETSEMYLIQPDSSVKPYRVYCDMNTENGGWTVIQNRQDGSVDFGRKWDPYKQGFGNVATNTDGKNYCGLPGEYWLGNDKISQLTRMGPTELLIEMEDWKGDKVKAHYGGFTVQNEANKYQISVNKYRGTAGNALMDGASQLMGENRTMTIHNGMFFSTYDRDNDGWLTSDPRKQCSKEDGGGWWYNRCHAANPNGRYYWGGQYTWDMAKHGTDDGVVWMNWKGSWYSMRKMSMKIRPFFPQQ
Chain of DDE (fibrin-derived polypeptide) (P02679 114-432): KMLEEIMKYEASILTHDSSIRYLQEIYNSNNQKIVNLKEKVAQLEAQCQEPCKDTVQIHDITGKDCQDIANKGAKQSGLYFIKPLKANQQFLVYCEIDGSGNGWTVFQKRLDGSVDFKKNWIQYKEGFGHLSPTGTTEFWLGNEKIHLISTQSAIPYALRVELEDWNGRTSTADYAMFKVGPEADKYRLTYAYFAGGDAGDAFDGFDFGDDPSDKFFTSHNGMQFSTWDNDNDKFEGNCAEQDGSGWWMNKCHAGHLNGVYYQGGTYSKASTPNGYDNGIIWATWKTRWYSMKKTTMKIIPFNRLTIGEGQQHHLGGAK
Chain of DDE (fibrin-derived polypeptide) (P02671 36-97): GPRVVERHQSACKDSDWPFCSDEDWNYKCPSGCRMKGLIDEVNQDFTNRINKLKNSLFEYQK
Chain of DDE (fibrin-derived polypeptide) (P02675 45-152): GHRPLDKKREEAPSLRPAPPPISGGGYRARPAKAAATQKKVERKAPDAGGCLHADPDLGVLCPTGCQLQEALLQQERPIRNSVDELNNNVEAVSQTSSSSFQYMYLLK
Chain of DDE (fibrin-derived polypeptide) (P02679 27-88): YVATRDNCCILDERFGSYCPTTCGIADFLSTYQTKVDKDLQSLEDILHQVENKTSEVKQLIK

Kd [µM]	SMILES
0.47	CC(=O)N[C@@H](CO)C(=O)NCC(=O)N[C@@H](CO)C(=O)NCC(=O)N[C@@H](CO)C(=O)NCC(=O)N[C@@H](CO)C(=O)NCC(=O)N[C@@H](Cc1c[nH]c2ccccc12)C(=O)N[C@@H](CCC(N)=O)C(=O)N1CCC[C@H]1C(=O)N[C@H]1CSSC[C@@H](C(=O)N[C@@H](Cc2c[nH]c3ccccc23)C(=O)N[C@@H](CC(=O)O)C(=O)N2CCC[C@H]2C(=O)NCC(=O)NCC(=O)NCC(=O)N[C@@H](CCCCNC(=O)c2ccc3c(c2)C(=O)OC32c3ccc(O)cc3Oc3cc(O)ccc32)C(N)=O)NC(=O)[C@H](Cc2ccccc2)NC(=O)[C@H]([C@@H](C)O)NC(=O)[C@H](Cc2c[nH]c3ccccc23)NC(=O)[C@H](CO)NC(=O)[C@H](CCC(=O)O)NC(=O)[C@H](Cc2c[nH]c3ccccc23)NC(=O)[C@@H]2CCCN2C1=O [Seq024-CF5] (Ac-SGSGSGSGWQPCPWESWTFCWDPGGGK(5FAM)-NH2; disulfide 12-20)
0.71	CC(=O)N[C@@H](CCCCN)C(=O)N[C@@H](CCCCN)C(=O)NCC(=O)N[C@@H](Cc1c[nH]c2ccccc12)C(=O)N[C@@H](CCC(N)=O)C(=O)N1CCC[C@H]1C(=O)N[C@H]1CSSC[C@@H](C(=O)N[C@@H](Cc2c[nH]c3ccccc23)C(=O)N[C@@H](CC(=O)O)C(=O)N2CCC[C@H]2C(=O)NCC(=O)NCC(=O)NCC(=O)N[C@@H](CCCCNC(=O)c2ccc3c(c2)C(=O)OC32c3ccc(O)cc3Oc3cc(O)ccc32)C(N)=O)NC(=O)[C@H](Cc2ccccc2)NC(=O)[C@H]([C@@H](C)O)NC(=O)[C@H](Cc2c[nH]c3ccccc23)NC(=O)[C@H](CO)NC(=O)[C@H](CCC(=O)O)NC(=O)[C@H](Cc2c[nH]c3ccccc23)NC(=O)[C@@H]2CCCN2C1=O [Seq025-CF5] (Ac-KKGWQPCPWESWTFCWDPGGGK(5FAM)-NH2; disulfide 7-15)
0.76	CC(=O)N[C@@H](CCCCN)C(=O)NCC(=O)N[C@@H](CCCCN)C(=O)NCC(=O)N[C@@H](CCCCN)C(=O)NCC(=O)N[C@@H](Cc1c[nH]c2ccccc12)C(=O)N[C@@H](CCC(N)=O)C(=O)N1CCC[C@H]1C(=O)N[C@H]1CSSC[C@@H](C(=O)N[C@@H](Cc2c[nH]c3ccccc23)C(=O)N[C@@H](CC(=O)O)C(=O)N2CCC[C@H]2C(=O)NCC(=O)NCC(=O)NCC(=O)N[C@@H](CCCCNC(=O)c2ccc3c(c2)C(=O)OC32c3ccc(O)cc3Oc3cc(O)ccc32)C(N)=O)NC(=O)[C@H](Cc2ccccc2)NC(=O)[C@H]([C@@H](C)O)NC(=O)[C@H](Cc2c[nH]c3ccccc23)NC(=O)[C@H](CO)NC(=O)[C@H](CCC(=O)O)NC(=O)[C@H](Cc2c[nH]c3ccccc23)NC(=O)[C@@H]2CCCN2C1=O [Seq026-CF5] (Ac-KGKGKGWQPCPWESWTFCWDPGGGK(5FAM)-NH2; disulfide 10-18)
0.5	CC(=O)N[C@H]1[C@@H](OC[C@H](NC(C)=O)C(=O)N[C@@H](Cc2c[nH]c3ccccc23)C(=O)N[C@@H](CCC(N)=O)C(=O)N2CCC[C@H]2C(=O)N[C@H]2CSSC[C@@H](C(=O)N[C@@H](Cc3c[nH]c4ccccc34)C(=O)N[C@@H](CC(=O)O)C(=O)N3CCC[C@H]3C(=O)NCC(=O)NCC(=O)NCC(=O)N[C@@H](CCCCNC(=O)c3ccc4c(c3)C(=O)OC43c4ccc(O)cc4Oc4cc(O)ccc43)C(N)=O)NC(=O)[C@H](Cc3ccccc3)NC(=O)[C@H]([C@@H](C)O)NC(=O)[C@H](Cc3c[nH]c4ccccc34)NC(=O)[C@H](CO)NC(=O)[C@H](CCC(=O)O)NC(=O)[C@H](Cc3c[nH]c4ccccc34)NC(=O)[C@@H]3CCCN3C2=O)O[C@H](CO)[C@H](O)[C@@H]1O [Seq027-CF5] (Ac-S(αGalNAc)WQPCPWESWTFCWDPGGGK(5FAM)-NH2; disulfide 5-13)
1.21	C[C@@H](O)[C@@H]1NC(=O)[C@H](Cc2c[nH]c3ccccc23)NC(=O)[C@H](CO)NC(=O)[C@H](CCC(=O)O)NC(=O)[C@H](Cc2c[nH]c3ccccc23)NC(=O)[C@@H]2CCCN2C(=O)[C@@H](NC(=O)[C@@H]2CCCN2C(=O)[C@H](CCC(N)=O)NC(=O)[C@H](Cc2c[nH]c3ccccc23)NC(=O)C2CCCO2)CSSC[C@@H](C(=O)N[C@@H](Cc2c[nH]c3ccccc23)C(=O)N[C@@H](CC(=O)O)C(=O)N2CCC[C@H]2C(=O)NCC(=O)NCC(=O)NCC(=O)N[C@@H](CCCCNC(=O)c2ccc3c(c2)C(=O)OC32c3ccc(O)cc3Oc3cc(O)ccc32)C(N)=O)NC(=O)[C@H](Cc2ccccc2)NC1=O (stereo partly shown) [Seq028-CF5] (ξTetrahydrofuran2carbonyl-WQPCPWESWTFCWDPGGGK(5FAM)-NH2; disulfide 4-12)
0.31	CC(=O)NCC(=O)N1CCC[C@H]1C(=O)N1CCC[C@H]1C(=O)NCC(=O)N[C@@H](Cc1c[nH]c2ccccc12)C(=O)N[C@@H](CCC(N)=O)C(=O)N1CCC[C@H]1C(=O)N[C@H]1CSSC[C@@H](C(=O)N[C@@H](Cc2c[nH]c3ccccc23)C(=O)N[C@@H](CC(=O)O)C(=O)N2CCC[C@H]2C(=O)NCC(=O)NCC(=O)NCC(=O)N[C@@H](CCCCNC(=O)c2ccc3c(c2)C(=O)OC32c3ccc(O)cc3Oc3cc(O)ccc32)C(N)=O)NC(=O)[C@H](Cc2ccccc2)NC(=O)[C@H]([C@@H](C)O)NC(=O)[C@H](Cc2c[nH]c3ccccc23)NC(=O)[C@H](CO)NC(=O)[C@H](CCC(=O)O)NC(=O)[C@H](C)NC(=O)[C@@H]2CCCN2C1=O [Seq034-CF5] (Ac-GPPGWQPCPAESWTFCWDPGGGK(5FAM)-NH2; disulfide 8-16)
0.52	CC(=O)NCC(=O)NCC(=O)N[C@@H](CCCNC(=N)N)C(=O)NCC(=O)N[C@@H](Cc1c[nH]c2ccccc12)C(=O)N[C@@H](CCC(N)=O)C(=O)N1CCC[C@H]1C(=O)N[C@H]1CSSC[C@@H](C(=O)N[C@@H](Cc2c[nH]c3ccccc23)C(=O)N[C@@H](CC(=O)O)C(=O)N2CCC[C@H]2C(=O)NCC(=O)NCC(=O)NCC(=O)N[C@@H](CCCCNC(=O)c2ccc3c(c2)C(=O)OC32c3ccc(O)cc3Oc3cc(O)ccc32)C(N)=O)NC(=O)[C@H](Cc2ccccc2)NC(=O)[C@H]([C@@H](C)O)NC(=O)[C@H](Cc2c[nH]c3ccccc23)NC(=O)[C@H](CO)NC(=O)[C@H](CCC(=O)O)NC(=O)[C@H](C)NC(=O)[C@@H]2CCCN2C1=O [Seq035-CF5] (Ac-GGRGWQPCPAESWTFCWDPGGGK(5FAM)-NH2; disulfide 8-16)
0.24	C[C@@H]1NC(=O)[C@@H]2CCCN2C(=O)[C@@H](NC(=O)[C@@H]2CCCN2C(=O)[C@H](CCC(N)=O)NC(=O)[C@H](Cc2c[nH]c3ccccc23)NC(=O)CN)CSSC[C@@H](C(=O)N[C@@H](Cc2c[nH]c3ccccc23)C(=O)N[C@@H](CC(=O)O)C(=O)N2CCC[C@H]2C(=O)NCC(=O)NCC(=O)NCC(=O)N[C@@H](CCCCNC(=O)c2ccc3c(c2)C(=O)OC32c3ccc(O)cc3Oc3cc(O)ccc32)C(N)=O)NC(=O)[C@H](Cc2ccccc2)NC(=O)[C@H]([C@@H](C)O)NC(=O)[C@H](Cc2c[nH]c3ccccc23)NC(=O)[C@H](CO)NC(=O)[C@H](CCC(=O)O)NC1=O [Seq038-CF5] (H-GWQPCPAESWTFCWDPGGGK(5FAM)-NH2; disulfide 5-13; N-terminus assumed)
0.24	CC(=O)NCC(=O)N[C@@H](Cc1c[nH]c2ccccc12)C(=O)N[C@@H](CCC(N)=O)C(=O)N1CCC[C@H]1C(=O)N[C@H]1CSSC[C@@H](C(=O)N[C@@H](Cc2c[nH]c3ccccc23)C(=O)N[C@@H](CC(=O)O)C(=O)N2CCC[C@H]2C(=O)NCC(=O)NCC(=O)NCC(=O)N[C@@H](CCCCNC(=O)c2ccc3c(c2)C(=O)OC32c3ccc(O)cc3Oc3cc(O)ccc32)C(N)=O)NC(=O)[C@H](Cc2ccccc2)NC(=O)[C@H]([C@@H](C)O)NC(=O)[C@H](Cc2c[nH]c3ccccc23)NC(=O)[C@H](CO)NC(=O)[C@H](CCC(=O)O)NC(=O)[C@H](C)NC(=O)[C@@H]2CCCN2C1=O [Seq039-CF5] (Ac-GWQPCPAESWTFCWDPGGGK(5FAM)-NH2; disulfide 5-13)
0.53	CC(=O)N[C@@H](CO)C(=O)NCC(=O)N[C@@H](CO)C(=O)NCC(=O)N[C@@H](CO)C(=O)NCC(=O)N[C@@H](CO)C(=O)NCC(=O)N[C@@H](Cc1c[nH]c2ccccc12)C(=O)N[C@@H](CCC(N)=O)C(=O)N1CCC[C@H]1C(=O)N[C@H]1CSSC[C@@H](C(=O)N[C@@H](Cc2c[nH]c3ccccc23)C(=O)N[C@@H](CC(=O)O)C(=O)N2CCC[C@H]2C(=O)NCC(=O)NCC(=O)NCC(=O)N[C@@H](CCCCNC(=O)c2ccc3c(c2)C(=O)OC32c3ccc(O)cc3Oc3cc(O)ccc32)C(N)=O)NC(=O)[C@H](Cc2ccccc2)NC(=O)[C@H]([C@@H](C)O)NC(=O)[C@H](Cc2c[nH]c3ccccc23)NC(=O)[C@H](CO)NC(=O)[C@H](CCC(=O)O)NC(=O)[C@H](C)NC(=O)[C@@H]2CCCN2C1=O [Seq040-CF5] (Ac-SGSGSGSGWQPCPAESWTFCWDPGGGK(5FAM)-NH2; disulfide 12-20)
